Data published in patent publication US5756765A, “2- (2-Substituted pyrrolidin-4-yl) thio-carbapenem derivatives” (Chong Kun Dang Corp., priority 1992, dated 1998).
Values after ≈ are worked out from the molar mass of the structure shown. Where two headings read alike, the source gives them in different places.

Tests used:
[1] = system: Pseudomonas aeruginosa 9027; experiment: Test 1: In vitro antibacterial activity (MIC), Mueller Hinton Agar dilution; type: cell-based; settings: read-out: Minimal Inhibitory Concentration (MIC)
Description: (§1) Test 1: In Vitro Antibacterial Activity Test
(§2) The compounds of Examples 1,2,3 and 4 according to the present invention were used as a test compound and imipenem was used as a comparative compound.
(§3) The test compounds and comparative compound were gradually diluted in Mueller Hinton Agar(MHA) medium. Test strains as listed in the following table were inoculated into the medium in an amount of 10^6 viable cells/ml and then incubated at 37° C. for 18 hours. Then, MIC value was measured and expressed in terms of μg/ml.

Salmonella typhimurium = experiment: as above; type: cell-based; settings: Salmonella enterica, read-out: Minimal Inhibitory Concentration (MIC)
Description: as §1, §2, §3

Escherichia coil TEM = experiment: as above; type: cell-based; settings: 18 h, read-out: Minimal Inhibitory Concentration (MIC)
Description: as §1, §2, §3

[2] = system: Klebsiella aerogenes 1522E; experiment: as above; type: cell-based; settings: read-out: Minimal Inhibitory Concentration (MIC)
Description: as §1, §2, §3

[3] = system: Pseudomonas aeruginosa 1592E; experiment: as above; type: cell-based; settings: read-out: Minimal Inhibitory Concentration (MIC)
Description: as §1, §2, §3

Klebsiella oxytoca 1082E = experiment: as above; type: cell-based; settings: read-out: Minimal Inhibitory Concentration (MIC)
Description: as §1, §2, §3

[4] = system: Enterobacter cloacae 1321E; experiment: as above; type: cell-based; settings: read-out: Minimal Inhibitory Concentration (MIC)
Description: as §1, §2, §3

Escherichia coli DC 2 = experiment: as above; type: cell-based; settings: read-out: Minimal Inhibitory Concentration (MIC)
Description: as §1, §2, §3

[5] = system: Staphylococcus aureus SG 511; experiment: as above; type: cell-based; settings: read-out: Minimal Inhibitory Concentration (MIC)
Description: as §1, §2, §3

[6] = Test 2: Stability test against kidney dehydrogenase DHP-I; type: in vitro ADME, pig; settings: kidney dhp-i enzyme; for remaining at 5 min / remaining at 10 min / remaining at 20 min / remaining at 40 min / remaining at 80 min / remaining at 2 h: pig kidney enzyme, 10 mM phosphate buffer, 37° C., read-out: percentage of the remaining amount (stability on DHP-I enzyme); for remaining at 2 h: 120 minutes
Description: Test 2: Stability Test Against kidney Dehydrogenase DHP-I
Each of the novel compounds of Examples 1,2,3 and 4 of the present invention and the comparative compound imipenem was dissolved in 10 mM phosphate buffer and the resulting solution was mixed with dehydrogenase enzyme solution extracted from pig kidney in a ratio of equivalent amounts. The resulting mixture was incubated at 37° C. for 2 hours, during which the decomposition degree of the compound was measured. The result thereof was given in the following Table 2 in terms of percentage of the remaining amount on the basis of the initially added amount of the compound.

[7] = system: various bacteria including beta-lactamase producing strains; settings: compared with thienamycin; cited from earlier work
[8] = substances produced by DHP-I enzyme decomposition; cited from earlier work
[9] = system: DHP-I enzyme present in human kidney; settings: cited from earlier work
Pseudomonas aeruginosa = settings: compared with thienamycin; cited from earlier work
[10] = system: dehydrogenase-1(DHP-I enzyme) present in kidney; settings: cited from earlier work
[11] = system: gram-positive and gram-negative bacteria; settings: cited from earlier work
[12] = clinically administered; cited from earlier work
[13] = Pseudomonas aeruginosa 9027, 10^6 viable cells/ml, 37° C., 18 hours
[14] = Salmonella typhimurium, 10^6 viable cells/ml, 37° C., 18 hours
[15] = Klebsiella aerogenes 1522E, 10^6 viable cells/ml, 37° C., 18 hours
[16] = Pseudomonas aeruginosa 1592E, 10^6 viable cells/ml, 37° C., 18 hours
[17] = Klebsiella oxytoca 1082E, 10^6 viable cells/ml, 37° C., 18 hours
[18] = Enterobacter cloacae 1321E, 10^6 viable cells/ml, 37° C., 18 hours
[19] = DC2, Escherichia coli DC 2, 10^6 viable cells/ml, 37° C., 18 hours
[20] = SG511, Staphylococcus aureus SG 511, 10^6 viable cells/ml, 37° C., 18 hours

Row | Structure (SMILES) | MIC [1, 13] [µg/mL] | MIC (Salmonella typhimurium; [14]) [µg/mL] | MIC (Escherichia coil TEM) [µg/mL] | MIC [2, 15] [µg/mL] | MIC [3, 16] [µg/mL] | MIC (Klebsiella oxytoca 1082E; [17]) [µg/mL] | MIC [4, 18] [µg/mL] | MIC (Escherichia coli DC 2; [19]) [µg/mL] | MIC [5, 20] [µg/mL] | remaining at 5 min [6] [%] | remaining at 10 min [6] [%] | remaining at 20 min [6] [%] | remaining at 40 min [6] [%] | remaining at 80 min [6] [%] | remaining at 2 h [6] [%] | other results
1 | C[C@@H](O)[C@H]1C(=O)N2C(C(=O)O)=C(S[C@@H]3CN[C@H](CSCC(=O)NCC#N)C3)[C@H](C)[C@H]12 [Example 1, (1R,5S,6S)-2-[(2S,4S)-2-{(cyanomethylcarbamoyl)methylmercaptomethyl}pyrrolidin-4-yl]thio-6-[(R)-1-hydroxyethyl]-1-methyl-1-carbapen-2-em-3-carboxylicacid] | 0.1 (≈ 0.22 µM) | 0.2 (≈ 0.44 µM) | 0.1 (≈ 0.22 µM) | 0.2 (≈ 0.44 µM) | 0.78 (≈ 1.72 µM) | 0.2 (≈ 0.44 µM) | 0.05 (≈ 0.11 µM) | 0.1 (≈ 0.22 µM) | 0.05 (≈ 0.11 µM) | 99.7 | 99.4 | 99.1 | 98.1 | 97.5 | 97.2 | –
2 | C[C@@H](O)[C@H]1C(=O)N2C(C(=O)O)=C(S[C@@H]3CN[C@H](CSCCC(=O)NCCO)C3)[C@H](C)[C@H]12 [Example 3, (1R,5S,6S)-2-[(2S,4S)-2-{(hydroxyethylcarbamoyl)ethylmercaptomethyl}pyrrolidin-4-yl]thio-6-[(R)-1-hydroxyethyl]-1-methyl-1-carbapen-2-em-3-carboxylicacid] | 0.39 (≈ 0.823 µM) | 0.1 (≈ 0.211 µM) | 0.05 (≈ 0.106 µM) | 0.1 (≈ 0.211 µM) | 0.39 (≈ 0.823 µM) | 0.2 (≈ 0.422 µM) | 0.05 (≈ 0.106 µM) | 0.1 (≈ 0.211 µM) | 0.05 (≈ 0.106 µM) | 99.7 | 99.2 | 98.9 | 98 | 97.2 | 97 | –
3 | C[C@@H](O)[C@H]1C(=O)N2C(C(=O)O)=C(S[C@@H]3CN[C@H](CSCCC(=O)NCC#N)C3)[C@H](C)[C@H]12 [Example 2, (1R,5S,6S)-2-[(2S,4S)-2-{(cyanomethylcarbamoyl)ethylmercaptomethyl}pyrrolidin-4-yl]thio-6-[(R)-1-hydroxyethyl]1-methyl-1-carbapen-2-em-3-carboxylic acid] | 0.78 (≈ 1.66 µM) | 0.1 (≈ 0.213 µM) | 0.05 (≈ 0.107 µM) | 0.1 (≈ 0.213 µM) | 0.78 (≈ 1.66 µM) | 0.2 (≈ 0.427 µM) | 0.05 (≈ 0.107 µM) | 0.1 (≈ 0.213 µM) | 0.05 (≈ 0.107 µM) | 100 | 99.4 | 98.6 | 97.2 | 96.3 | 96.3 | –
4 | C[C@@H](O)[C@H]1C(=O)N2C(C(=O)O)=C(SCCN=CN)C[C@H]12 [Imipenem, (5R, 6S, 8R)-3-[[2-(formimidoylamino)ethyl]thio]-6-(1-hydroxyethyl)-7-oxo-1-azabicyclo[3.2.0]hept-ene-2-carboxylic acid hydrate, reference compound] | – | – | 0.2 | – | – | – | – | – | – | 99.2 | 97.9 | 94.3 | 87.7 | 77 | 66.6 | antibacterial activity relative to thienamycin, in words [7]: equivalent to, or higher than, that of thienamycin; MIC ([1]; Pseudomonas aeruginosa, 9027, 18 h): 0.78 µg/mL; MIC (Salmonella typhimurium; TYPHIMURIUM, 18 h): 0.78 µg/mL; MIC ([2]; Klebsiella aerogenes, 1522E, 18 h): 0.78 µg/mL; MIC ([3]; Pseudomonas aeruginosa, 1592E, 18 h): 0.78 µg/mL; MIC (Klebsiella oxytoca 1082E; Klebsiella oxytoca, 1082E, 18 h): 0.39 µg/mL; MIC ([4]; Enterobacter cloacae, 1321E, 18 h): 0.2 µg/mL; MIC (Escherichia coli DC 2; Escherichia coli, DC2, 18 h): 0.78 µg/mL; MIC ([5]; Staphylococcus aureus, SG511, 18 h): 0.1 µg/mL; metabolised at 2 h ([6]; pig, within about 2 hours from beginning of mixing incubation, read-out: decomposition ("was composed by about 40%")): ~40%; renal toxicity, in words [8]: serious renal toxicity; decomposition by DHP-I, in words [9]: can be readily decomposed by DHP-I enzyme present in human kidney; antibacterial activity, times stronger than that of thienamycin (Pseudomonas aeruginosa): 2 to 4 times
5 | C[C@@H](O)[C@H]1C(=O)N2C(C(=O)O)=C(S[C@@H]3CN[C@H](CSCCC(=O)NCC(N)=O)C3)[C@H](C)[C@H]12 [Example 4, (1R,5S,6S)-2-[(2S,4S)-2-{(2-carbamoylmethylcarbamoyl)ethylmercaptomethyl}pyrrolidin-4-yl]thio-6-[(R)-1-hydroxyethyl]-1-methyl-1-carbapen-2-em-3-carboxylic acid] | 0.1 (≈ 0.206 µM) | 0.2 (≈ 0.411 µM) | 0.1 (≈ 0.206 µM) | 0.1 (≈ 0.206 µM) | 0.78 (≈ 1.6 µM) | 0.2 (≈ 0.411 µM) | 0.05 (≈ 0.103 µM) | 0.1 (≈ 0.206 µM) | 0.05 (≈ 0.103 µM) | 100 | 99.8 | 99 | 99.8 | 98.8 | 98.8 | –
6 | C[C@@H](O)[C@H]1C(=O)N2C(C(=O)O)=C(SCCN)CC12 (stereo partly drawn) [thienamycin, [5R-[5α, 6α(R*)]]-3-[(2-aminoethyl)-thio]-6-(1-hydroxyethyl)-7-oxo-1-azabicyclo[3.2.0]-hept-2-ene-2-carboxylic acid] | – | – | – | – | – | – | – | – | – | – | – | – | – | – | – | decomposition in vivo by DHP-I, in words [10]: can be readily decomposed in vivo by dehydrogenase-1(DHP-I enzyme) present in kidney; antimicrobial activity, in words [11]: broad and potent antimicrobial activity against gram-positive and gram-negative bacteria; recovery rate in urine [12]: extremely low
